Consider nine molecules from patent US20090286876A1, “NEUROPROTECTIVE BENZOATE AND BENZAMIDE COMPOUNDS” (Samaritan Pharmaceuticals, Inc., priority 2003, published 2009).

Assay [1] deals with PC12 cells. Put plainly: Aβ1-42-induced free radical production (2,7-DCF fluorescent probe). The following applies: compound 1-100 μM 24 h pre-incubation; Aβ1-42 0.1-10 μM 24 h.
Assay [2] has as its system PC12 cells. Put plainly: Reversal of Aβ1-42-induced ATP depletion (ATPLite-M assay). The conditions noted are these: for ATP decrease induced by Aβ1-42, Aβ1-42 control = 100% reduction: 24 h pre-incubation, 24 h; for effect on Aβ1-42-induced ATP decrease, in words: compound 1-100 μM, Aβ1-42 0.1-10 μM. (In general: ATP-based viability assays read luminescence as a measure of living cells.)

The test system of assay [3] is PC12 cells. Put plainly: Glutamate-induced excitotoxicity, MTT assay. In kind it is cell-based, rat. The conditions noted are these: glutamate 100 μM 24 h. (In general: Formazan colour is commonly taken as a measure of viable cells.)
Assay [4] deals with PC12 cells. Put plainly: Neuroprotection against Aβ1-42 cytotoxicity, MTT assay (NADPH diaphorase activity). In kind it is cell-based, rat.
The subject of a further assay is HMG-CoA reductase mRNA. The assay can be described thus: HMG-CoA reductase mRNA synthesis, real-time quantitative PCR. The following applies: Aβ1-42 1 μM, 24 h, compared to control PC12 cells. In kind it is cell-based, rat.
Where [5] appears, read: compound 1-100 μM, Aβ1-42 0.1-10 μM.

Read-outs that look alike come from different tables or passages of the source.

For `CCN(CC)CC(=O)Nc1c(C)cccc1C` [Lidocaine, (2-diethylamino)-N-(2,6-dimethylphenyl)-acetamide], the “effect on Aβ1-42-induced free radical production, in words” value in the assay on PC12 cells [1] is listed as “exhibited a trend to reduce the Aβ1-42-induced free radical production”. Further, the “ATP decrease induced by Aβ1-42, Aβ1-42 control = 100% reduction” value with PC12 cells [2] (compound 1 μM, Aβ1-42 0.1 μM) was determined as 38.7 ± 26.1 %; with PC12 cells [2] (compound 1 μM, Aβ1-42 1 μM), 62.0 ± 8.5 %; with PC12 cells [2] (compound 1 μM, Aβ1-42 10 μM) it was 53.5 ± 20.3 %; in the assay on PC12 cells [2] (compound 10 μM, Aβ1-42 0.1 μM) it was 47.2 ± 28.7 %; in the assay on PC12 cells [2] (compound 10 μM, Aβ1-42 1 μM), 69.0 ± 13.0 %; in the assay with PC12 cells [2] (compound 10 μM, Aβ1-42 10 μM) it was 65.0 ± 7.6 %. For the same molecule, the “ATP decrease induced by Aβ1-42, Aβ1-42 control = 100% reduction” value in the assay with PC12 cells [2] (compound 100 μM, Aβ1-42 0.1 μM) was found to be 65.3 ± 45.2%; in the assay on PC12 cells [2] (compound 100 μM, Aβ1-42 1 μM) it was 81.3 ± 8.7%; with PC12 cells [2] (compound 100 μM, Aβ1-42 10 μM) it was 70.1 ± 4.8 %. The “effect on Aβ1-42-induced ATP decrease, in words” value with PC12 cells [2] is “restored ATP concentrations in PC12 cells exposed to 0.1 and 1 μM Aβ1-42”.

Take `CCN(CC)CCNC(=O)c1ccc(N)cc1` [Procainamide]: in the assay with PC12 cells [1], the “effect on Aβ1-42-induced free radical production, in words” value is reported as “exhibited a trend to reduce the Aβ1-42-induced free radical production”. Further, the “ATP decrease induced by Aβ1-42, Aβ1-42 control = 100% reduction” value came out at 46.8 ± 25.9 % in the assay on PC12 cells [2] (compound 1 μM, Aβ1-42 0.1 μM); 51.4 ± 17.3 % in the assay with PC12 cells [2] (compound 1 μM, Aβ1-42 1 μM); 56.5 ± 11.6 % in the assay with PC12 cells [2] (compound 1 μM, Aβ1-42 10 μM); 60.4 ± 5.8 % in the assay with PC12 cells [2] (compound 10 μM, Aβ1-42 0.1 μM); 61.7 ± 10.8 % in the assay with PC12 cells [2] (compound 10 μM, Aβ1-42 1 μM); 56.2 ± 6.1 % in the assay with PC12 cells [2] (compound 10 μM, Aβ1-42 10 μM). In addition, the “ATP decrease induced by Aβ1-42, Aβ1-42 control = 100% reduction” value with PC12 cells [2] (compound 100 μM, Aβ1-42 0.1 μM) was determined as 40.9 ± 14.5 %; with PC12 cells [2] (compound 100 μM, Aβ1-42 1 μM) it was 40.8 ± 6.5 %; in the assay on PC12 cells [2] (compound 100 μM, Aβ1-42 10 μM) it was 52.2 ± 10.2 %. In addition, the “effect on Aβ1-42-induced ATP decrease, in words” value in the assay with PC12 cells [2] was “significantly prevented the Aβ1-42-induced decrease of intracellular ATP levels”.

`CCN1CCN(OC(=O)c2ccc(OC)c(OC)c2OC)CC1` [SP008, (4-ethylpiperazinyl-1-yl)-2′,3′,4′-trimethoxybenzoate]: the “neuroprotective effect against glutamate-induced cell death (MTT), in words” value in the assay with PC12 cells [3] (compound 0.3-30 μM 24 h pre-incubation) is given as “more important than that of procaine effect at the same concentration”. Moreover, in the assay on PC12 cells [3] (compound tested at 0.3-30 μM), the “concentration of maximum (peak) protective effect against glutamate” value was determined as 3 µM.

`CC(=O)OC1CC(O)C2(C)C(OC(C)=O)C3C(CC(C)C12)OC(=O)C3CN1CCN(C(=O)c2ccccc2)CC1` (stereo not shown) [SP015, Acetic acid 7-acetoxy-3-(4-benzoyl-piperazin-1-yl-methyl)-5-hydroxy-4a, 8-dimethyl-2-oxo-dodecahydro-azuleno[6,5-b]furan-4-yl ester]: in the assay on PC12 cells [4] (setting [5]), the “protective effect against Aβ1-42 neurotoxicity (MTT), in words” value is “protected only at 1 and 10 μM concentrations against the highest concentration of Aβ1-42”. The “effect on Aβ1-42-induced free radical production, in words” value with PC12 cells [1] was “amplified the Aβ1-42-induced free radicals production”. For the same molecule, the “ATP decrease induced by Aβ1-42, Aβ1-42 control = 100% reduction” value with PC12 cells [2] (compound 1 μM, Aβ1-42 0.1 μM) stood at 46.3 ± 10.1 %; in the assay on PC12 cells [2] (compound 1 μM, Aβ1-42 1 μM), 55.6 ± 5.3 %; in the assay with PC12 cells [2] (compound 1 μM, Aβ1-42 10 μM), 32.8 ± 9.4 %; with PC12 cells [2] (compound 10 μM, Aβ1-42 0.1 μM) it was 99.2 ± 13.1%; in the assay with PC12 cells [2] (compound 10 μM, Aβ1-42 1 μM), 124 ± 24.7%; in the assay on PC12 cells [2] (compound 10 μM, Aβ1-42 10 μM), 104 ± 22.5%. Also, the “ATP decrease induced by Aβ1-42, Aβ1-42 control = 100% reduction” value is given as 91.5 ± 1.5% in the assay on PC12 cells [2] (compound 100 μM, Aβ1-42 0.1 μM); 85.6 ± 12.3% in the assay with PC12 cells [2] (compound 100 μM, Aβ1-42 1 μM); 73.8 ± 6.8 % with PC12 cells [2] (compound 100 μM, Aβ1-42 10 μM). In addition, the “effect on Aβ1-42-induced ATP decrease, in words” value in the assay with PC12 cells [2] is reported as “able to reverse the effect of Aβ1-42 on ATP”.

Take `CC(=O)OC1CC(OC(C)=O)C2(C)C(O)C3C(CC(C)C12)OC(=O)C3CN1CCN(C(=O)c2ccccc2)CC1` (stereo not shown) [SP016, acetic acid 5-acetoxy-3-(4-benzoyl-piperazin-1-yl-methyl)-4-hydroxy-4a, 8-dimethyl-2-oxo-dodecahydro-azuleno[6,5-b]furan-7-yl ester]: the “protective effect against Aβ1-42 neurotoxicity (MTT), in words” value in the assay with PC12 cells [4] (setting [5]) is reported as “no protective activity”. Also, in the assay with PC12 cells [1], the “effect on Aβ1-42-induced free radical production, in words” value was “amplified the Aβ1-42-induced free radicals production”. Further, the “ATP decrease induced by Aβ1-42, Aβ1-42 control = 100% reduction” value is listed as 49.5 ± 10.2 % in the assay with PC12 cells [2] (compound 1 μM, Aβ1-42 0.1 μM); 81.5 ± 4.2% in the assay with PC12 cells [2] (compound 1 μM, Aβ1-42 1 μM); 96.8 ± 30.6% in the assay with PC12 cells [2] (compound 1 μM, Aβ1-42 10 μM); 101 ± 7.8% with PC12 cells [2] (compound 10 μM, Aβ1-42 0.1 μM); 105 ± 10.1% in the assay with PC12 cells [2] (compound 10 μM, Aβ1-42 1 μM); 110 ± 10.1% in the assay with PC12 cells [2] (compound 10 μM, Aβ1-42 10 μM). The “ATP decrease induced by Aβ1-42, Aβ1-42 control = 100% reduction” value in the assay on PC12 cells [2] (compound 100 μM, Aβ1-42 0.1 μM) was 86.3 ± 15.7%; in the assay on PC12 cells [2] (compound 100 μM, Aβ1-42 1 μM), 100 ± 17.8%; with PC12 cells [2] (compound 100 μM, Aβ1-42 10 μM), 121 ± 29.0%.

In the case of `CC1=CCC23OC2(C)CCC2C(CN4CCN(C(=O)c5ccccc5)CC4)C(=O)OC2C13` (stereo not shown) [SP017, 3-(4-benzoyl-piperazin-1-yl-methyl)-6,6a-epoxy-6,9-dimethyl-3a,4,5,6,6a,7,9a,9b-octahydro-3H-azuleno[4,5-b]furan-2-one], in the assay on PC12 cells [4], the “efficacy range, inhibition of Aβ1-42 toxicity (mitochondrial diaphorase activity)” value is listed as 30-70%. The “protective effect against Aβ1-42 neurotoxicity (MTT), in words” value in the assay with PC12 cells [4] (setting [5]) was “at 100 μM potentiated the toxic effect of Aβ1-42”. For the same molecule, in the assay on PC12 cells [1], the “effect on Aβ1-42-induced free radical production, in words” value is on record as “amplified the Aβ1-42-induced free radicals production”. For the same molecule, the “ATP decrease induced by Aβ1-42, Aβ1-42 control = 100% reduction” value came to 28.1 ± 7.2 % with PC12 cells [2] (compound 1 μM, Aβ1-42 0.1 μM); 42.6 ± 5.8 % in the assay with PC12 cells [2] (compound 1 μM, Aβ1-42 1 μM); 73.0 ± 12.1 % in the assay on PC12 cells [2] (compound 1 μM, Aβ1-42 10 μM); 54.9 ± 15.6 % in the assay with PC12 cells [2] (compound 10 μM, Aβ1-42 0.1 μM); 44.9 ± 8.1 % with PC12 cells [2] (compound 10 μM, Aβ1-42 1 μM); 68.9 ± 7.3 % in the assay on PC12 cells [2] (compound 10 μM, Aβ1-42 10 μM). For the same molecule, the “ATP decrease induced by Aβ1-42, Aβ1-42 control = 100% reduction” value in the assay on PC12 cells [2] (compound 100 μM, Aβ1-42 0.1 μM) came out at 115 ± 21.4%; with PC12 cells [2] (compound 100 μM, Aβ1-42 1 μM) it was 108 ± 20.8%; in the assay on PC12 cells [2] (compound 100 μM, Aβ1-42 10 μM), 122 ± 6.7%. Also, the “effect on Aβ1-42-induced ATP decrease, in words” value in the assay on PC12 cells [2] is “able to reverse the effect of Aβ1-42 on ATP”.

Consider `CCCCNc1ccc(C(=O)OCCN(C)C)cc1` [Tetracaine], for which, in the assay on PC12 cells [1], the “effect on Aβ1-42-induced free radical production, in words” value is recorded as “exhibited a trend to reduce the Aβ1-42-induced free radical production”. Further, the “ATP decrease induced by Aβ1-42, Aβ1-42 control = 100% reduction” value in the assay on PC12 cells [2] (compound 1 μM, Aβ1-42 0.1 μM) worked out at 54.8 ± 4.0 %; in the assay on PC12 cells [2] (compound 1 μM, Aβ1-42 1 μM) it was 32.2 ± 5.5 %; in the assay with PC12 cells [2] (compound 1 μM, Aβ1-42 10 μM), 45.5 ± 6.1 %; with PC12 cells [2] (compound 10 μM, Aβ1-42 0.1 μM), 59.5 ± 9.6 %; in the assay on PC12 cells [2] (compound 10 μM, Aβ1-42 1 μM), 58.0 ± 18.9 %; in the assay on PC12 cells [2] (compound 10 μM, Aβ1-42 10 μM), 41.9 ± 4.2 %. In addition, the “ATP decrease induced by Aβ1-42, Aβ1-42 control = 100% reduction” value with PC12 cells [2] (compound 100 μM, Aβ1-42 0.1 μM) is listed as 59.3 ± 10.5 %; in the assay on PC12 cells [2] (compound 100 μM, Aβ1-42 1 μM) it was 45.4 ± 2.2 %; with PC12 cells [2] (compound 100 μM, Aβ1-42 10 μM), 45.8 ± 6.5 %. The “effect on Aβ1-42-induced ATP decrease, in words” value in the assay on PC12 cells [2] was “significantly prevented the Aβ1-42-induced decrease of intracellular ATP levels”.

In the case of (+)-MK801, the “protective effect against Aβ1-42 neurotoxicity (MTT), in words” value in the assay with PC12 cells [4] is “lessens in a dose-dependent manner PC12 cell viability decrease induced by Aβ1-42”.

“Aβ1-42: 42 amino acid β-amyloid peptide purchased from American Peptide Co., used as neurotoxic insult”: the “HMG-CoA mRNA synthesis” value in the assay with HMG-CoA reductase mRNA was found to be 1.48±0.17 times the control level.
